{"source": "ChEMBL document CHEMBL6071165", "about": "“Design, synthesis and biological evaluation of plant-derived miliusol derivatives achieve TNBC profound regression in vivo” (Eur J Med Chem, 2024)", "key": {"[1]": {"test": "(§1) Selectivity ratio of IC50 for antiproliferative activity against human MCF-10A cells assessed as inhibition of cell proliferation incubated for 24 hrs by MTT assay to IC50 for antiproliferative activity against human MDA-MB-231 cells assessed as inhibition of cell proliferation incubated for 24 hrs by MTT assay", "assay_type": "cell-based", "details": "MCF-10A cells versus MDA-MB-231 cells, read-out: Ratio IC50"}, "[2]": {"test": "as §1, with “48” for “24”", "assay_type": "cell-based", "details": "MCF-10A cells versus MDA-MB-231 cells, read-out: Ratio IC50"}, "BT-549 [3]": {"test_system": "BT-549", "test": "Inhibition of cell proliferation in human BT-549 cells assessed as reduction in Ki-67 expression at 0.5 to 2 uM incubated for 24 hrs by DAPI staining based immunofluorescence analysis", "assay_type": "functional", "details": "dose 0.5-2 µM"}, "MDA-MB-231 [4]": {"test_system": "MDA-MB-231", "test": "Inhibition of cell migration in human MDA-MB-231 cells assessed as decrease in SNAIL level at 1 uM incubated for 24 hrs by DAPI staining based immunofluorescence analysis", "assay_type": "functional"}, "[5]": {"target": "Eukaryotic translation initiation factor 3 subunit D (Homo sapiens) (UniProt O15371)", "sequence (O15371 whole entry)": "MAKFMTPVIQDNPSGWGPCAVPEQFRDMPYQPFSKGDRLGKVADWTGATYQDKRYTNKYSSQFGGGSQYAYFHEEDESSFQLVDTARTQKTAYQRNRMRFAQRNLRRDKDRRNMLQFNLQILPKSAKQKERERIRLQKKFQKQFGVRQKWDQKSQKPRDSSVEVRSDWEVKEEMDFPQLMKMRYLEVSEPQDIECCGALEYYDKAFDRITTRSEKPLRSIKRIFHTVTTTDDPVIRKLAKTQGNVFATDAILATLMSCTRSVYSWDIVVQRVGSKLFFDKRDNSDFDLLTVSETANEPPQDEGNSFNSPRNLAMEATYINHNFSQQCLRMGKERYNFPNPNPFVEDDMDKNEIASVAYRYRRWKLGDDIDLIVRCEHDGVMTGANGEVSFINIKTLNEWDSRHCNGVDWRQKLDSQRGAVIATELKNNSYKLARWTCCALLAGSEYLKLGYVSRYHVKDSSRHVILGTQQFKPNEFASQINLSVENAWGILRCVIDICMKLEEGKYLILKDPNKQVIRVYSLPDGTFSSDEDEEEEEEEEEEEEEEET", "test": "Induction of thermal stabilization of EIF3D in human MDA-MB-231 cells at 1 uM by CETSA analysis", "assay_type": "cell-based"}, "BT-549 [6]": {"test_system": "BT-549", "test": "Downregulation of LDHA expression in human BT-549 cells at 1 uM incubated for 24 hrs by DAPI staining based immunofluorescence analysis", "assay_type": "functional, cell-based"}, "MDA-MB-231 [7]": {"test_system": "MDA-MB-231", "test": "Downregulation of LDHA expression in human MDA-MB-231 cells at 1 uM incubated for 24 hrs by DAPI staining based immunofluorescence analysis", "assay_type": "functional, cell-based"}, "BT-549 [8]": {"test_system": "BT-549", "test": "Induction of ER stress in human BT-549 cells assessed as activation of CHOP protein level incubated for 24 hrs by Western blot analysis", "assay_type": "functional, cell-based", "details": "dose 0.5-2 µM"}, "MDA-MB-231 [9]": {"test_system": "MDA-MB-231", "test": "Induction of ER stress in human MDA-MB-231 cells assessed as activation of BIP protein level incubated for 24 hrs by Western blot analysis", "assay_type": "functional, cell-based", "details": "dose 0.5-2 µM"}, "BT-549 [10]": {"test_system": "BT-549", "test": "Induction of ER stress in human BT-549 cells assessed as activation of Xbp-1s protein level incubated for 24 hrs by Western blot analysis", "assay_type": "functional, cell-based", "details": "dose 0.5-2 µM"}, "BT-549 [11]": {"test_system": "BT-549", "test": "Induction of apoptosis in human BT-549 cells assessed as viable cells at 0.5 uM incubated for 24 hrs by Annexin V-PI staining based flow cytometric analysis (reference value: 93.0%)", "assay_type": "functional", "details": "read-out: Activity"}, "BT-549 [12]": {"test_system": "BT-549", "test": "Induction of apoptosis in human BT-549 cells assessed as necrotic cells at 2 uM incubated for 24 hrs by Annexin V-PI staining based flow cytometric analysis (reference value: 3.32%)", "assay_type": "functional"}, "MDA-MB-231 [13]": {"test_system": "MDA-MB-231", "test": "Induction of apoptosis in human MDA-MB-231 cells assessed as viable cells at 2 uM incubated for 24 hrs by Annexin V-PI staining based flow cytometric analysis (reference value: 96.5%)", "assay_type": "functional", "details": "read-out: Activity"}, "Mitochondrial membrane": {"test_system": "Mitochondrial membrane", "test": "Disruption of mitochondrial potential loss in human MDA-MB-231 cells assessed as decrease in JC-1 aggregates at 1 uM incubated for 24 hrs by JC-1 staining based flow cytometric analysis (Rvb =98.1%)", "assay_type": "cell membranes", "parameters": "scale not given: the % may be the effect or the level left"}, "BT-549 [14]": {"test_system": "BT-549", "test": "Induction of apoptosis in human BT-549 cells assessed as upregulation of cleavage of caspase-9 expression at 0.5 to 2 uM incubated for 24 hrs by Western blot analysis", "assay_type": "functional, cell-based", "details": "dose 0.5-2 µM"}, "BT-549 [15]": {"test_system": "BT-549", "test": "Antitumor activity against human BT-549 cells xenografted in female BALB/c mouse model assessed as reduction in tumor volume administered subcutaneously and measured every day", "assay_type": "functional, cell-based", "details": "dose 5-20 mg/kg, route sc"}, "MDA-MB-231 [16]": {"test_system": "MDA-MB-231", "test": "Antitumor activity against human MDA-MB-231 cells xenografted in female BALB/c mouse model assessed as reduction in tumor weight administered subcutaneously and measured every day", "assay_type": "functional, cell-based", "details": "dose 5-20 mg/kg, route sc"}, "[17]": {"test": "Toxicity in female BALB/c mouse xenografted with human MDA-MB-231 cells assessed as effect on body weight at 5 to 20 mg/kg, sc and measured daily", "assay_type": "organism-based", "details": "in vivo, dose 5-20 mg/kg"}, "[18]": {"test": "Toxicity in female BALB/c mouse xenografted with human MDA-MB-231 cells assessed as effect on pathological changes in spleen at 5 to 20 mg/kg, sc by H and E staining based analysis", "assay_type": "organism-based", "details": "in vivo, dose 5-20 mg/kg"}, "[19]": {"test": "Toxicity in female BALB/c mouse xenografted with human BT-549 cells assessed as effect on pathological changes in spleen at 5 to 20 mg/kg, sc by H and E staining based analysis", "assay_type": "organism-based", "details": "in vivo, dose 5-20 mg/kg"}, "[20]": {"test": "Toxicity in female BALB/c mouse xenografted with human MDA-MB-231 cells assessed as effect on pathological changes in lung at 5 to 20 mg/kg, sc by H and E staining based analysis", "assay_type": "organism-based", "details": "in vivo, dose 5-20 mg/kg"}, "[21]": {"test": "Toxicity in female BALB/c mouse xenografted with human BT-549 cells assessed as effect on pathological changes in kidney at 5 to 20 mg/kg, sc by H and E staining based analysis", "assay_type": "organism-based", "details": "in vivo, dose 5-20 mg/kg"}, "MDA-MB-231 [22]": {"test_system": "MDA-MB-231", "test": "Antiproliferative activity against human MDA-MB-231 cells xenografted in female BALB/c mouse model assessed as increase in E-cadherin level at 5 to 20 mg/kg administered subcutaneously by immunohistochemical staining based microscopic analysis", "assay_type": "functional, organism-based", "details": "dose 5-20 mg/kg, route sc"}, "MDA-MB-231 [23]": {"test_system": "MDA-MB-231", "test": "Antiproliferative activity against human MDA-MB-231 cells xenografted in female BALB/c mouse model assessed as fold change in downregulation of MMP-2 protein level at 10 mg/kg administered subcutaneously incubated for 24 hrs by Western blot analysis (reference value: 1.00%)", "assay_type": "functional", "details": "route sc"}, "MDA-MB-231 [24]": {"test_system": "MDA-MB-231", "test": "Antiproliferative activity against human MDA-MB-231 cells xenografted in female BALB/c mouse model assessed as fold change in upregulation of BIP protein level at 5 mg/kg administered subcutaneously incubated for 24 hrs by Western blot analysis (reference value: 1.00%)", "assay_type": "functional", "details": "route sc"}, "BT-549 [25]": {"test_system": "BT-549", "test": "Antiproliferative activity against human BT-549 cells xenografted in female BALB/c mouse model assessed as fold change in upregulation of BIP protein level at 5 mg/kg administered subcutaneously incubated for 24 hrs by Western blot analysis (reference value: 1.00%)", "assay_type": "functional", "details": "route sc"}, "MDA-MB-231 [26]": {"test_system": "MDA-MB-231", "test": "Antiproliferative activity against human MDA-MB-231 cells xenografted in female BALB/c mouse model assessed as fold change in upregulation of BAX protein level at 10 mg/kg administered subcutaneously incubated for 24 hrs by Western blot analysis (reference value: 1.00%)", "assay_type": "functional", "details": "route sc"}, "BT-549 [27]": {"test_system": "BT-549", "test": "Antiproliferative activity against human BT-549 cells xenografted in female BALB/c mouse model assessed as fold change in upregulation of BAX protein level at 10 mg/kg administered subcutaneously incubated for 24 hrs by Western blot analysis (reference value: 1.00%)", "assay_type": "functional", "details": "route sc"}, "MDA-MB-231 [28]": {"test_system": "MDA-MB-231", "test": "Antiproliferative activity against human MDA-MB-231 cells xenografted in female BALB/c mouse model assessed as fold change in cleavage of caspase-3 level at 10 mg/kg administered subcutaneously incubated for 24 hrs by Western blot analysis (reference value: 1.00%)", "assay_type": "functional", "details": "route sc"}, "MDA-MB-231 [29]": {"test_system": "MDA-MB-231", "test": "Antiproliferative activity against human MDA-MB-231 cells xenografted in female BALB/c mouse model assessed as fold change in cleavage of caspase-3 level at 20 mg/kg administered subcutaneously incubated for 24 hrs by Western blot analysis (reference value: 1.00%)", "assay_type": "functional", "details": "route sc"}, "[30]": {"test": "Toxicity in female BALB/c mouse assessed as change in brain administered subcutaneously measured upto 16 days", "assay_type": "tissue-based", "details": "in vivo, sc, 384 h, time < 16 day"}, "[31]": {"test": "Toxicity in female BALB/c mouse assessed as change in spleen administered subcutaneously measured upto 16 days", "assay_type": "tissue-based", "details": "in vivo, sc, 384 h, time < 16 day"}}, "note": "Activity calls are given as the source filed them. No cut-off for these calls is given here.", "data": [{"smiles": "CC(C)=CCC/C(C)=C/[C@H]1OC(=O)CC12C[C@H](OC(=O)Cc1ccc(NC(=O)/C=C/c3ccccc3)cc1)C=CC2=O", "note": "(some centres not stated)", "values": [{"measurement": "selectivity ratio at 24 h", "setting": "[1]", "value": 67.2}, {"measurement": "selectivity ratio at 48 h", "setting": "[2]", "value": 36.4}, {"measurement": "inhibition", "setting": "BT-549 [3]", "value": "Active"}, {"measurement": "inhibition", "setting": "MDA-MB-231 [4]", "value": "Active"}, {"measurement": "Activity", "setting": "[5]", "value": "Active"}, {"measurement": "Activity", "setting": "BT-549 [6]", "value": "Active"}, {"measurement": "Activity", "setting": "MDA-MB-231 [7]", "value": "Active"}, {"measurement": "Activity", "setting": "BT-549 [8]", "value": "Dose-Dependent Effect"}, {"measurement": "Activity", "setting": "MDA-MB-231 [9]", "value": "Dose-Dependent Effect"}, {"measurement": "Activity", "setting": "BT-549 [10]", "value": "Active"}, {"measurement": "viability at 0.5 µM", "setting": "BT-549 [11]", "value": 91.7, "unit": "%"}, {"measurement": "Activity", "setting": "BT-549 [12]", "value": 4.02, "unit": "%"}, {"measurement": "viability at 2 µM", "setting": "MDA-MB-231 [13]", "value": 48.8, "unit": "%"}, {"measurement": "Activity", "setting": "Mitochondrial membrane", "value": 58.2, "unit": "%"}, {"measurement": "Activity", "setting": "BT-549 [14]", "value": "Active"}, {"measurement": "Activity", "setting": "BT-549 [15]", "value": "Dose-Dependent Effect"}, {"measurement": "Activity", "setting": "MDA-MB-231 [16]", "value": "Dose-Dependent Effect"}, {"measurement": "Activity", "setting": "[17]", "value": "Non-Toxic"}, {"measurement": "Activity", "setting": "[18]", "value": "Non-Toxic"}, {"measurement": "Activity", "setting": "[19]", "value": "Non-Toxic"}, {"measurement": "Activity", "setting": "[20]", "value": "Non-Toxic"}, {"measurement": "Activity", "setting": "[21]", "value": "Non-Toxic"}, {"measurement": "Activity", "setting": "MDA-MB-231 [22]", "value": "Active"}, {"measurement": "fold change (FC)", "setting": "MDA-MB-231 [23]", "value": 0.26}, {"measurement": "fold change (FC)", "setting": "MDA-MB-231 [24]", "value": 2.18}, {"measurement": "fold change (FC)", "setting": "BT-549 [25]", "value": 1.4}, {"measurement": "fold change (FC)", "setting": "MDA-MB-231 [26]", "value": 1.13}, {"measurement": "fold change (FC)", "setting": "BT-549 [27]", "value": 1.61}, {"measurement": "fold change (FC)", "setting": "MDA-MB-231 [28]", "value": 1.67}, {"measurement": "fold change (FC)", "setting": "MDA-MB-231 [29]", "value": 2.09}, {"measurement": "Activity", "setting": "[30]", "value": "Non-Toxic"}, {"measurement": "Activity", "setting": "[31]", "value": "Non-Toxic"}]}]}
